Like-named read-outs stand apart in the source and are kept apart here.
Legend:
[1] = DEX.10 mg IP
B16 melanoma = format: in vivo, female BDF1 mice; conditions: for Statistically Significant Effect on Reducing Tumor Volume: cp alone
[2] = system: MT-1 breast cancer xenograft; conditions: for Died of toxic effects: 8 mice
MOPC-315 myeloma [3] = test: MOPC-315 Myeloma study #6: β-alethine ip day 9, 10 or 11, mp ip day 10 (1 × 10^6 tumor cells); conditions: for Animals Surviving: mp 1.25 mg/kg d 10 alone (20 mice)
MOPC-315 myeloma [4] = test: MOPC-315 Myeloma study #4: Melphalan + β-alethine ip day 10 (1 × 10^6 tumor cells); conditions: for Animals Surviving: mp 1.25 mg/kg; for Mean Tumor Size: mp alone
MOPC-315 myeloma [5] = test: MOPC-315 Myeloma study #5: Melphalan + β-alethine ip day 9 (1 × 10^6 tumor cells); conditions: for Tumor Size: 1.25 mg/kg mp; for Animals Surviving: mp 1.25 mg/kg
[6] = mp on day 10, BT none, 20 in group

C[C@@H]1C[C@H]2[C@@H]3CCC4=CC(=O)C=C[C@]4(C)[C@@]3(F)[C@@H](O)C[C@]2(C)[C@@]1(O)C(=O)CO [DEX., dexamethasone]
Percent Body Weight Loss From Day 0 ([1]; day 1): 3.0%
Percent Body Weight Loss From Day 0 ([1]; day 5): 4.6%
Percent Body Weight Loss From Day 0 ([1]; day 6): 2.8%
Percent Body Weight Loss From Day 0 ([1]; day 7): 3.4%
Percent Body Weight Loss From Day 0 ([1]; day 8): 2.4%
Percent Body Weight Loss From Day 0 ([1]; day 9): 3.6%
Percent Body Weight Loss From Day 0 ([1]; day 10): 2.8%
Percent Body Weight Loss From Day 0 ([1]; day 11): 1.3%
Percent Body Weight Loss From Day 0 ([1]; day 12): 3.7%
Percent Body Weight Loss From Day 0 ([1]; day 13): 2.1%
Percent Body Weight Loss From Day 0 ([1]; day 21): 0.1%

O=P1(N(CCCl)CCCl)NCCCO1 (stereo not shown) [cp, cyclophosphamide]
Percent of Animals with Greater than 10 Metastases (B16 melanoma; Cp 200 mg/kg): 50%
animals with 0-10 Metastases on Day 42 (B16 melanoma; Cp 200 mg/kg): 4
animals with 11-20 Metastases on Day 42 (B16 melanoma; Cp 200 mg/kg): 3
animals with 21-30 Metastases on Day 42 (B16 melanoma; Cp 200 mg/kg): 0
animals with over 30 Metastases (full of metastases) on Day 42 (B16 melanoma; Cp 200 mg/kg): 1
Primary Tumor Size (Median RTV) (B16 melanoma; cp 200 mg/kg alone, day 0): 1
Primary Tumor Size (Median RTV) (B16 melanoma; cp 200 mg/kg alone, day 4): 1.0
Primary Tumor Size (Median RTV) (B16 melanoma; cp 200 mg/kg alone, day 7): 2.4
Primary Tumor Size (Median RTV) (B16 melanoma; cp 200 mg/kg alone, day 10): 3.5
Primary Tumor Size (Median RTV) (B16 melanoma; cp 200 mg/kg alone, day 14): 12.9
Primary Tumor Size (Median RTV) (B16 melanoma; cp 200 mg/kg alone, day 17): 32.6
T/C ratio for medium tumor volume (B16 melanoma; cp 200 mg/kg alone, day 17): 82.3%
Statistically Significant Effect on Reducing Tumor Volume (B16 melanoma; DAY 7): No
Statistically Significant Effect on Reducing Tumor Volume (B16 melanoma; DAY 10): Yes
Statistically Significant Effect on Reducing Tumor Volume (B16 melanoma; DAY 14): Yes
Statistically Significant Effect on Reducing Tumor Volume (B16 melanoma; DAY 17): No
Median Relative Tumor Volume ([2]; 100 mg/kg cp, day 42): 1
Median Relative Tumor Volume ([2]; 100 mg/kg cp, day 46): 1.37
Median Relative Tumor Volume ([2]; 100 mg/kg cp, day 49): 1.54
Median Relative Tumor Volume ([2]; 100 mg/kg cp, day 53): 1.50
Median Relative Tumor Volume ([2]; 100 mg/kg cp, day 59): 1.85
Median Relative Tumor Volume ([2]; 200 mg/kg cp, day 42): 1
Median Relative Tumor Volume ([2]; 200 mg/kg cp, day 46): 1.15
Median Relative Tumor Volume ([2]; 200 mg/kg cp, day 49): 1.11
Median Relative Tumor Volume ([2]; 200 mg/kg cp, day 53): 1.21
Median Relative Tumor Volume ([2]; 200 mg/kg cp, day 59): 1.15
Median Relative Tumor Volume ([2]; 300 mg/kg cp, day 42): 1
Median Relative Tumor Volume ([2]; 300 mg/kg cp, day 46): 1.34
Median Relative Tumor Volume ([2]; 300 mg/kg cp, day 49): 1.14
Median Relative Tumor Volume ([2]; 300 mg/kg cp, day 53): 1.15
Median Relative Tumor Volume ([2]; 300 mg/kg cp, day 59): 1.14
T/C RTV d 49 ([2]; Cp 100 mg/kg): 87%
T/C RTV d 59 ([2]; Cp 100 mg/kg): 81%
WBC d 46 ([2]; Cp 100 mg/kg): 10.3 10^6/mL
T/C RTV d 49 ([2]; Cp 200 mg/kg): 63%
T/C RTV d 59 ([2]; Cp 200 mg/kg): 50%
WBC d 46 ([2]; Cp 200 mg/kg): 5.5 10^6/mL
Last 2 readings indicate progression ([2]; Cp 300 mg/kg): 12%
Last 2 readings indicate regression ([2]; Cp 300 mg/kg): 12%
Last 2 readings stayed the same ([2]; Cp 300 mg/kg): 0%
Last reading indicates progression ([2]; Cp 300 mg/kg): 25%
Last reading indicates regression ([2]; Cp 300 mg/kg): 25%
T/C RTV d 49 ([2]; Cp 300 mg/kg): 65%
T/C RTV d 59 ([2]; Cp 300 mg/kg): 50%
WBC d 46 ([2]; Cp 300 mg/kg): 5.6 10^6/mL
Died of toxic effects ([2]; Cp 300 mg/kg): 25%
Died of toxic effects ([2]; Cp 300 mg/kg, listed as Cp): 25%

N[C@@H](Cc1ccc(N(CCCl)CCCl)cc1)C(=O)O [mp, melphalan]
Animals Surviving (MOPC-315 myeloma [3]; test day 10): 20
Animals Surviving (MOPC-315 myeloma [3]; test day 11): 20
Animals Surviving (MOPC-315 myeloma [3]; test day 12): 20
Animals Surviving (MOPC-315 myeloma [3]; test day 13): 20
Animals Surviving (MOPC-315 myeloma [3]; test day 14): 20
Animals Surviving (MOPC-315 myeloma [3]; test day 15): 20
Animals Surviving (MOPC-315 myeloma [3]; test day 16): 19
Animals Surviving (MOPC-315 myeloma [3]; test day 17): 19
Animals Surviving (MOPC-315 myeloma [3]; test day 18): 19
Animals Surviving (MOPC-315 myeloma [3]; test day 19): 19
Animals Surviving (MOPC-315 myeloma [3]; test day 20): 19
Animals Surviving (MOPC-315 myeloma [3]; test day 21): 15
Animals Surviving (MOPC-315 myeloma [3]; test day 22): 9
Animals Surviving (MOPC-315 myeloma [3]; test day 23): 9
Animals Surviving (MOPC-315 myeloma [3]; test day 25): 7
Animals Surviving (MOPC-315 myeloma [3]; test day 26): 4
Animals Surviving (MOPC-315 myeloma [3]; test day 27): 3
Animals Surviving (MOPC-315 myeloma [3]; test day 29): 2
Animals Surviving (MOPC-315 myeloma [3]; test day 31): 2
day 21 tumor size (MOPC-315 myeloma [3]; mp on day 10, BT none): 25.8 mm
day half are dead (MOPC-315 myeloma [3]; mp on day 10, BT none): 22
cures day 21 (MOPC-315 myeloma [3]; [6]): 2
deaths day 21 (MOPC-315 myeloma [3]; [6]): 5
cures day 21 (MOPC-315 myeloma [3]; mp on day 10, BT none, 20 in group, listed as melphalan): 2/20
day 21 tumor size (MOPC-315 myeloma [3]; mp on day 10, BT none, listed as melphalan): 26 mm
animals in ten cured (MOPC-315 myeloma [4]; mp 1.25 mg/kg alone): one
cure occurred, days after treatment began (MOPC-315 myeloma [4]; mp 1.25 mg/kg alone): 19 days
Animals Surviving (MOPC-315 myeloma [4]; day 10): 10
Animals Surviving (MOPC-315 myeloma [4]; day 11): 8
Animals Surviving (MOPC-315 myeloma [4]; day 12): 5
Animals Surviving (MOPC-315 myeloma [4]; day 13): 4
Animals Surviving (MOPC-315 myeloma [4]; day 14): 3
Animals Surviving (MOPC-315 myeloma [4]; day 15): 3
Animals Surviving (MOPC-315 myeloma [4]; day 16): 3
Animals Surviving (MOPC-315 myeloma [4]; day 17): 3
Animals Surviving (MOPC-315 myeloma [4]; day 18): 3
Animals Surviving (MOPC-315 myeloma [4]; day 19): 3
Animals Surviving (MOPC-315 myeloma [4]; day 20): 3
Animals Surviving (MOPC-315 myeloma [4]; day 21): 3
Animals Surviving (MOPC-315 myeloma [4]; day 22): 3
Animals Surviving (MOPC-315 myeloma [4]; day 23): 3
Animals Surviving (MOPC-315 myeloma [4]; day 25): 3
Animals Surviving (MOPC-315 myeloma [4]; day 26): 3
Animals Surviving (MOPC-315 myeloma [4]; day 27): 3
Animals Surviving (MOPC-315 myeloma [4]; day 29): 3
Animals Surviving (MOPC-315 myeloma [4]; day 31): 1
Mean Tumor Size (MOPC-315 myeloma [4]; day 10): 22.5 mm
Mean Tumor Size (MOPC-315 myeloma [4]; day 14): 19 mm
Mean Tumor Size (MOPC-315 myeloma [4]; day 17): 17 mm
Mean Tumor Size (MOPC-315 myeloma [4]; day 21): 22 mm
Mean Tumor Size (MOPC-315 myeloma [4]; day 29): 28 mm
Tumor Size (MOPC-315 myeloma [5]; day 13): 20.4 mm
Tumor Size (MOPC-315 myeloma [5]; day 16): 19.2 mm
Tumor Size (MOPC-315 myeloma [5]; day 20): 17.0 mm
Tumor Size (MOPC-315 myeloma [5]; day 23): 10.2 mm
Tumor Size (MOPC-315 myeloma [5]; day 27): 0 mm
Animals Surviving (MOPC-315 myeloma [5]; day 10): 10
Animals Surviving (MOPC-315 myeloma [5]; day 11): 10
Animals Surviving (MOPC-315 myeloma [5]; day 12): 10
Animals Surviving (MOPC-315 myeloma [5]; day 13): 10
Animals Surviving (MOPC-315 myeloma [5]; day 14): 10
Animals Surviving (MOPC-315 myeloma [5]; day 15): 10
Animals Surviving (MOPC-315 myeloma [5]; day 16): 10
Animals Surviving (MOPC-315 myeloma [5]; day 17): 10
Animals Surviving (MOPC-315 myeloma [5]; day 18): 10
Animals Surviving (MOPC-315 myeloma [5]; day 19): 10
Animals Surviving (MOPC-315 myeloma [5]; day 20): 9
Animals Surviving (MOPC-315 myeloma [5]; day 21): 9
Animals Surviving (MOPC-315 myeloma [5]; day 22): 9
Animals Surviving (MOPC-315 myeloma [5]; day 23): 8
Animals Surviving (MOPC-315 myeloma [5]; day 25): 8
Animals Surviving (MOPC-315 myeloma [5]; day 26): 8
Animals Surviving (MOPC-315 myeloma [5]; day 28): 7
Animals Surviving (MOPC-315 myeloma [5]; day 29): 7
Animals Surviving (MOPC-315 myeloma [5]; day 31): 7
